Measured values published in patent US11053204B2, “Pyrimidinyloxy benzene derivatives as herbicides” (FMC Corporation, priority 2015, dated 2021).

Legend:
Assay type in all cases: in vivo
kochia (Kochia scoparia) [1] = test: Test A preemergence, visual injury rating; settings: 0 to 100 scale (0 no effect, 100 complete control)
Source text: (§1) Seeds of plant species selected from barnyardgrass (Echinochloa crus-galli), kochia (Kochia scoparia), ragweed (common ragweed, Ambrosia elatior), Italian ryegrass (Lolium multiflorum), large (Lg) crabgrass (Digitaria sanguinalis), giant foxtail (Setaria faberii), morningglory (Ipomoea spp.), pigweed (Amaranthus retroflexus), velvetleaf (Abutilon theophrasti), wheat (Triticum aestivum), and corn (Zea mays) were planted into a blend of loam soil and sand and treated preemergence with a directed soil spray using test chemicals formulated in a non-phytotoxic solvent mixture which included a surfactant.
(§2) At the same time, plants selected from these crop and weed species and also blackgrass (Alopecurus myosuroides), and galium (catchweed bedstraw, Galium aparine) were planted in pots containing the same blend of loam soil and sand and treated with postemergence applications of test chemicals formulated in the same manner. Plants ranged in height from 2 to 10 cm and were in the one- to two-leaf stage for the postemergence treatment. Treated plants and untreated controls were maintained in a greenhouse for approximately 10 days, after which time all treated plants were compared to untreated controls and visually evaluated for injury. Plant response ratings, summarized in Table A, are based on a 0 to 100 scale where 0 is no effect and 100 is complete control. A dash (-) response means no test result.

[2] = tested on: ragweed (common ragweed, Ambrosia elatior); test: Test A preemergence, visual injury rating; settings: 0 to 100 scale (0 no effect, 100 complete control)
Source text: as §1, §2

[3] = tested on: Italian ryegrass (Lolium multiflorum); test: Test A preemergence, visual injury rating; settings: 0 to 100 scale (0 no effect, 100 complete control)
Source text: as §1, §2

[4] = tested on: barnyardgrass (Echinochloa crus-galli); test: Test A preemergence, visual injury rating; settings: 0 to 100 scale (0 no effect, 100 complete control)
Source text: as §1, §2

[5] = tested on: pigweed (Amaranthus retroflexus); test: Test A preemergence, visual injury rating; settings: 0 to 100 scale (0 no effect, 100 complete control)
Source text: as §1, §2

[6] = tested on: giant foxtail (Setaria faberii); test: Test A preemergence, visual injury rating; settings: 0 to 100 scale (0 no effect, 100 complete control)
Source text: as §1, §2

kochia (Kochia scoparia) [7] = test: Test A postemergence, visual injury rating; settings: 0 is no effect, 100 is complete control
Source text: as §1, §2

[8] = tested on: ragweed (common ragweed, Ambrosia elatior); test: Test A postemergence, visual injury rating; settings: 0 is no effect, 100 is complete control
Source text: as §1, §2

corn (Zea mays) = test: Test A postemergence, visual injury rating; settings: 0 is no effect, 100 is complete control
Source text: as §1, §2

[9] = tested on: Italian ryegrass (Lolium multiflorum); test: Test A postemergence, visual injury rating; settings: 0 is no effect, 100 is complete control
Source text: as §1, §2

[10] = tested on: barnyardgrass (Echinochloa crus-galli); test: Test A postemergence, visual injury rating; settings: 0 is no effect, 100 is complete control
Source text: as §1, §2

[11] = tested on: pigweed (Amaranthus retroflexus); test: Test A postemergence, visual injury rating; settings: 0 is no effect, 100 is complete control
Source text: as §1, §2

[12] = tested on: blackgrass (Alopecurus myosuroides); test: Test A postemergence, visual injury rating; settings: 0 is no effect, 100 is complete control
Source text: as §1, §2

[13] = tested on: wheat (Triticum aestivum); test: Test A postemergence, visual injury rating; settings: 0 is no effect, 100 is complete control
Source text: as §1, §2

[14] = tested on: giant foxtail (Setaria faberii); test: Test A postemergence, visual injury rating; settings: 0 is no effect, 100 is complete control
Source text: as §1, §2

[15] = tested on: galium (catchweed bedstraw, Galium aparine); test: Test A postemergence, visual injury rating; settings: 0 is no effect, 100 is complete control
Source text: as §1, §2

Row | Structure (SMILES) | Kochia plant response rating (kochia (Kochia scoparia) [1]; 125 g ai/ha) | Kochia plant response rating (kochia (Kochia scoparia) [1]; 500 g ai/ha) | Ragweed plant response rating ([2]; 125 g ai/ha) | Ragweed plant response rating ([2]; 500 g ai/ha) | Ryegrass, Italian plant response rating ([3]; 125 g ai/ha) | Ryegrass, Italian plant response rating ([3]; 500 g ai/ha) | Barnyardgrass plant response rating ([4]; 125 g ai/ha) | Barnyardgrass plant response rating ([4]; 500 g ai/ha) | Pigweed plant response rating ([5]; 125 g ai/ha) | Pigweed plant response rating ([5]; 500 g ai/ha) | Foxtail, Giant plant response rating ([6]; 125 g ai/ha) | Foxtail, Giant plant response rating ([6]; 500 g ai/ha) | Kochia plant response rating (0 to 100 scale) (kochia (Kochia scoparia) [7]; 125 g ai/ha) | Kochia plant response rating (0 to 100 scale) (kochia (Kochia scoparia) [7]; 500 g ai/ha) | Ragweed plant response rating (0 to 100 scale) ([8]; 125 g ai/ha) | Ragweed plant response rating (0 to 100 scale) ([8]; 500 g ai/ha) | Corn plant response rating (0 to 100 scale) (corn (Zea mays); 125 g ai/ha) | Corn plant response rating (0 to 100 scale) (corn (Zea mays); 500 g ai/ha) | Ryegrass, Italian plant response rating (0 to 100 scale) ([9]; 125 g ai/ha) | Ryegrass, Italian plant response rating (0 to 100 scale) ([9]; 500 g ai/ha) | also measured
1 | N#Cc1cnc(Oc2cccc(Br)c2C(=O)OCC(F)(F)F)nc1 [Compound 31] | 0 | 0 | 0 | 0 | 0 | 0 | 0 | 0 | 0 | 0 | 0 | 0 | 0 | 0 | 0 | 0 | 0 | 0 | 0 | 0 | Barnyardgrass plant response rating (0 to 100 scale) ([10]; 125 g ai/ha): 0; Barnyardgrass plant response rating (0 to 100 scale) ([10]; 500 g ai/ha): 0; Pigweed plant response rating (0 to 100 scale) ([11]; 125 g ai/ha): 0; Pigweed plant response rating (0 to 100 scale) ([11]; 500 g ai/ha): 0; Blackgrass plant response rating (0 to 100 scale) ([12]; 125 g ai/ha): 0; Blackgrass plant response rating (0 to 100 scale) ([12]; 500 g ai/ha): 0; Wheat plant response rating (0 to 100 scale) ([13]; 125 g ai/ha): 0; Wheat plant response rating (0 to 100 scale) ([13]; 500 g ai/ha): 0; Foxtail, Giant plant response rating (0 to 100 scale) ([14]; 125 g ai/ha): 0; Foxtail, Giant plant response rating (0 to 100 scale) ([14]; 500 g ai/ha): 0; Galium plant response rating (0 to 100 scale) ([15]; 125 g ai/ha): 0; Galium plant response rating (0 to 100 scale) ([15]; 500 g ai/ha): 0
2 | N#Cc1cccc(Oc2ncc(Cl)cn2)c1C(=O)OCC(F)(F)F [Compound 32] | 0 | 0 | 0 | 0 | 0 | 0 | 0 | 0 | 30 | 30 | 0 | 0 | 0 | 0 | 0 | 0 | 0 | 0 | 0 | 0 | Barnyardgrass plant response rating (0 to 100 scale) ([10]; 125 g ai/ha): 0; Barnyardgrass plant response rating (0 to 100 scale) ([10]; 500 g ai/ha): 0; Pigweed plant response rating (0 to 100 scale) ([11]; 125 g ai/ha): 20; Pigweed plant response rating (0 to 100 scale) ([11]; 500 g ai/ha): 30; Blackgrass plant response rating (0 to 100 scale) ([12]; 125 g ai/ha): 0; Blackgrass plant response rating (0 to 100 scale) ([12]; 500 g ai/ha): 0; Wheat plant response rating (0 to 100 scale) ([13]; 125 g ai/ha): 0; Wheat plant response rating (0 to 100 scale) ([13]; 500 g ai/ha): 0; Foxtail, Giant plant response rating (0 to 100 scale) ([14]; 125 g ai/ha): 0; Foxtail, Giant plant response rating (0 to 100 scale) ([14]; 500 g ai/ha): 0; Galium plant response rating (0 to 100 scale) ([15]; 125 g ai/ha): 0; Galium plant response rating (0 to 100 scale) ([15]; 500 g ai/ha): 0
3 | O=C(OCC(F)(F)F)c1c(Br)cccc1Oc1ncc(Br)cn1 [Compound 34] | 20 | 40 | 0 | 0 | 0 | 0 | 0 | 90 | 40 | 100 | 70 | 100 | 60 | 90 | 0 | 0 | 30 | 30 | 0 | 0 | Barnyardgrass plant response rating (0 to 100 scale) ([10]; 125 g ai/ha): 0; Barnyardgrass plant response rating (0 to 100 scale) ([10]; 500 g ai/ha): 20; Pigweed plant response rating (0 to 100 scale) ([11]; 125 g ai/ha): 100; Pigweed plant response rating (0 to 100 scale) ([11]; 500 g ai/ha): 100; Blackgrass plant response rating (0 to 100 scale) ([12]; 125 g ai/ha): 10; Blackgrass plant response rating (0 to 100 scale) ([12]; 500 g ai/ha): 70; Wheat plant response rating (0 to 100 scale) ([13]; 125 g ai/ha): 0; Wheat plant response rating (0 to 100 scale) ([13]; 500 g ai/ha): 0; Foxtail, Giant plant response rating (0 to 100 scale) ([14]; 125 g ai/ha): 20; Foxtail, Giant plant response rating (0 to 100 scale) ([14]; 500 g ai/ha): 80; Galium plant response rating (0 to 100 scale) ([15]; 125 g ai/ha): 50; Galium plant response rating (0 to 100 scale) ([15]; 500 g ai/ha): 100
4 | N#CCOC(=O)c1c(C#N)cccc1Oc1ncc(Cl)cn1 [Compound 39] | 0 | 0 | 0 | 0 | 0 | 0 | 0 | 0 | 0 | 0 | 0 | 0 | 0 | 0 | 0 | 0 | 0 | 0 | 0 | 0 | Barnyardgrass plant response rating (0 to 100 scale) ([10]; 125 g ai/ha): 0; Barnyardgrass plant response rating (0 to 100 scale) ([10]; 500 g ai/ha): 0; Pigweed plant response rating (0 to 100 scale) ([11]; 125 g ai/ha): 0; Pigweed plant response rating (0 to 100 scale) ([11]; 500 g ai/ha): 0; Blackgrass plant response rating (0 to 100 scale) ([12]; 125 g ai/ha): 0; Blackgrass plant response rating (0 to 100 scale) ([12]; 500 g ai/ha): 0; Wheat plant response rating (0 to 100 scale) ([13]; 125 g ai/ha): 0; Wheat plant response rating (0 to 100 scale) ([13]; 500 g ai/ha): 0; Foxtail, Giant plant response rating (0 to 100 scale) ([14]; 125 g ai/ha): 0; Foxtail, Giant plant response rating (0 to 100 scale) ([14]; 500 g ai/ha): 0; Galium plant response rating (0 to 100 scale) ([15]; 125 g ai/ha): 0; Galium plant response rating (0 to 100 scale) ([15]; 500 g ai/ha): 0
